Consider 2 compounds from patent US10376475B2, “Method of use” (Dermavant Sciences GmbH, priority 2014, dated 2019).

Where two headings read alike, the source gives them in different places.

For data set [1], the system named is primary human cell types. The experiment in a line: BioMAP Diversity Plus System profile comparison. The settings on record: 148 phenotypic readouts, at one or more test concentration.
For data set [2], the system named is IL-17A. It counts as cell-based.
The conditions of data set [3]: mouse ear edema; cited from earlier work.
Data set [4] relates to P. acnes. The data set is described as follows: MIC against P. acnes on supplemented Brucella blood agar (CLSI). It is filed as cell-based, Propionibacterium acnes. The protocol: Bacterial strains utilized to evaluate this concept of antibacterial synergy were the clinical isolates P. acnes 6601, 6602, AN24, 100372, and reference strain ATCC6919. These were received from the internal culture GSK collection held by the Infectious Disease CEDD at the Upper Providence site. Bacteria inocula were prepared, and the determination of the minimal inhibitory concentration (MIC) were conducted on supplemented Brucella blood agar as described for the CLSI guideline method (Bhate, K. et al. Brit. J. Derm. 168:474-485, 2013). Briefly, diluted antibacterials were added to tempered molten agar and aseptically poured into petri dishes and allowed to solidify. Following 24-hours incubation in an anaerobic environment bacterial colonies were suspended and adjusted for turbidity equivalent to a 0.5 MacFarland standard. One-two microliters of inoculums were placed on each antibiotic containing agar plate and allowed to absorb for 30 min. Plates were then inverted and incubated anaerobically for 48-72 hours before observation for growth. The lowest drug concentration which inhibited bacterial growth was designated as the MIC.

The subject of data set [5] is primary human keratinocytes. The experiment in a line: Keratinocyte viability (annexin V / propidium iodide flow cytometry). It counts as cell-based. The settings on record: 10 and 30 uM, 48 hours. The protocol:
Keratinocyte hyperproliferation increases blockage and can promote comedome formation in acne. […] The ability of Compound 1 to induce apoptosis in primary keratinocytes may contribute to efficacy in acne patients.
Primary human keratinocytes were cultured in EpiLife medium containing HKGS growth supplement and seeded in tissue culture plates at 250,000 cells per plate. On the next day, the culture medium was removed and keratinocytes were then treated with culture medium containing vehicle control (DMSO) or increasing concentrations of Compound 1 (1, 10, 30 uM). After 48 hours of culture, keratinocytes were removed from tissue culture plates and cell viability was assessed by staining for apoptotic markers (annexin V and propidium iodide) using flow cytometry.
(In general: Flow cytometry measures light scatter and fluorescence of single cells or particles in a stream.)

The subject of data set [6] is IL-17. The experiment in a line: IL-17 secretion by pre-existing (differentiated) Th17 polarized cells after TCR stimulus.
Data set [7] concerns IL-17A. The data set is described as follows: IL-17A protein secretion by peripheral blood CD4+ T cells cultured under Th17 polarizing conditions (Magpix). It counts as cell-based. Conditions: 5 days of culture, titrating doses. On the procedure:
To further understand the active dose range of compound 1-mediated suppression of Th17-associated cytokines, IL-17A protein secretion was examined in peripheral blood CD4+ T cells following 5 days of culture under Th17 polarizing conditions in the presence or absence of titrating doses of Compound 1 (FIG. 2). Supernatants were harvested at the end of the culture period and secreted protein was analyzed by Magpix (magnetic-based Luminex technology).

Data set [8] relates to human immortalized sebocytes. The data set is described as follows: Sebocyte lipogenesis assay (14C-acetate). It counts as cell-based. The settings on record: 10, 3, 1, 0.3 and 0.1 μM. On the procedure: Briefly, human immortalized sebocytes (tsSV40 and hTERT) were seeded and allowed to grow to confluence in Sebocyte Growth Medium. Upon confluence, cells were transferred to […] to initiate Large T antigen degradation. Two days later, cells were stimulated with Sebocyte Labeling Medium containing 1 μM T0901317 and vehicle (DMSO) or compound 1. […] Next day, the media was replaced with Sebocyte Labeling Medium containing 1 μM T0901317 and original treatments or vehicle plus 1 μM insulin. 2 ul of 14C-acetate was added per well and the plate incubated for 4 hours. After 2 hours of incubation, 10 ul of CTB reagent was added per well for normalization. Incubation was continued for the remaining 2 hours and plates were read at Ex. 560 Em.590 for CTB signal. Cells were then washed, trypsinized and transferred to glass vials for lipid extraction. The results are expressed as % lipid production relative to control (LXR+Insulin group).
FIG. 4, the data represent % inhibition relative to control (LXR+Insulin group). Data are represented as Mean±SEM. Data are from 3 replicates.

For the compound `CC(C)c1c(O)cc(/C=C/c2ccccc2)cc1O` [Compound 1], in data set [1], the “number of biomarkers modulated” value is listed as “more than 25”. Moreover, the “suppression of IL-17 secretion” value in data set [2] (100 nM) is “more than 60%”. In addition, the “reduction of IL-17” value in data set [2] (10 μM) is listed as “approximately 80%”. For the same compound, the “IL-17A mRNA expression” value in data set [2] (normalized to PPIB, 5-day culture) was “inhibited IL-17A mRNA expression in parallel and at the same potency as secretion of IL-17 protein”. The “skin redness and thickness” value in data set [3] was “dose dependent reduction in both skin redness and thickness”. The MIC worked out at 128 µg/mL in data set [4] (Cutibacterium acnes, P. acnes reference strain ATCC6919, read-out: MIC); 128 µg/mL in data set [4] (Cutibacterium acnes, all P. acnes strains tested, read-out: MIC); 128 µg/mL in data set [4] (P. acnes strain 6601); 128 µg/mL in data set [4] (P. acnes strain 6602); 128 µg/mL in data set [4] (P. acnes strain 100372); 128 µg/mL in data set [4] (P. acnes strain AN24). In addition, the “antibacterial activity against P. acnes” value in data set [4] (judgement based on MIC results) was “would not be considered to be active”. Besides, the “keratinocyte viability / cytotoxicity” value in data set [5] is “overtly cytotoxic”. Also, the “reduction of IL-17 levels relative to stimulus alone” value in data set [6] (30 μM, 24 hours) is recorded as 80-95%. Also, the IL-17A protein levels entry in data set [7] was “suppressed by compound 1 in a dose-dependent manner”. Besides, the “lipogenesis relative to control (LXR+Insulin group)” value in data set [8] is recorded as “not active”; in data set [8] (listed as compound 1), “trends towards increased lipogenesis”.
`Oc1ccc(C=Cc2cc(O)cc(O)c2)cc1` [Resveratrol]: the results for the “effect on IL-17” value in data set [6] (30 μM) and in data set [6] (lower concentrations (below 30 μM)) were “partial inhibition” and “enhancement”, respectively.

What is called MIC is the lowest concentration that inhibits growth of the organism.
